Reference: PubChem BioAssay (NCI)
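96-well plates; 48 h exposure; 5 concentrations. Endpoints by linear interpolation between flanking doses. Not reached: highest tested concentration assigned. GI50 is the concentration that inhibits growth by half. TGI is the concentration that stops growth completely.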

Assays:
Test in all cases: NCI-60 cell line screen, 48 h
MALME-3M melanoma = test system: MALME-3M melanoma
SK-MEL-28 melanoma = test system: SK-MEL-28 melanoma
CCRF-CEM leukemia = test system: CCRF-CEM leukemia
SF-539 CNS = test system: SF-539 CNS
NCI-H460 lung = test system: NCI-H460 lung
SR leukemia = test system: SR leukemia
HL-60(TB) leukemia = test system: HL-60(TB) leukemia
NCI/ADR-RES ovarian = test system: NCI/ADR-RES ovarian
HS 578T breast = test system: HS 578T breast
MCF7 breast = test system: MCF7 breast

Row | SMILES | TGI (MALME-3M melanoma) [µM] | TGI (SK-MEL-28 melanoma) [µM] | TGI (CCRF-CEM leukemia) [µM] | TGI (SF-539 CNS) [µM] | TGI (NCI-H460 lung) [µM] | TGI (SR leukemia) [µM] | TGI (HL-60(TB) leukemia) [µM] | GI50 (NCI/ADR-RES ovarian) [µM] | TGI (NCI/ADR-RES ovarian) [µM] | GI50 (MALME-3M melanoma) [µM] | GI50 (SK-MEL-28 melanoma) [µM] | GI50 (SF-539 CNS) [µM] | GI50 (HS 578T breast) [µM] | TGI (HS 578T breast) [µM] | GI50 (SR leukemia) [µM] | GI50 (MCF7 breast) [µM] | TGI (MCF7 breast) [µM] | GI50 (NCI-H460 lung) [µM] | GI50 (CCRF-CEM leukemia) [µM] | GI50 (HL-60(TB) leukemia) [µM]
1 | CN(C)CCNc1nc(-c2cccs2)cc(-c2cccs2)n1 | 30.9 | 30 | 24.1 | 28.5 | 18.3 | 15.4 |  |  |  |  |  |  |  |  |  |  |  |  |  | 
2 | Nc1ccc(C(=O)N/C(=C\c2cccc([N+](=O)[O-])c2)c2nc3c4c(ccc3[nH]2)C(=O)c2ccccc2C4=O)cc1 | > 100 | > 100 | > 100 | > 100 | > 100 |  |  |  |  |  |  |  |  |  |  |  |  |  |  | 
3 | C#CCN(C)C(=O)N(CC#C)N=O | > 100 | > 100 | > 100 | > 100 | > 100 |  | > 100 |  |  |  |  |  |  |  |  |  |  |  |  | 
4 | O=C1c2ccn(CCCCN3CCC(O)CC3)c2C(=O)c2c1c(O)c1ccccc1c2O | 41.8 | > 41 |  | > 100 |  | > 100 |  | 78.8 | > 100 | 16.5 | 13.3 | 43.8 | 29.2 | > 83.8 | > 100 |  |  |  |  | 
5 | COc1ccc2c(c1)OCCC1=C2SCC2(C)CCN=C12 (centres undefined) |  | > 100 | > 100 | > 100 | > 100 |  | > 100 |  |  |  |  |  |  |  |  |  |  |  |  | 
6 | N#Cc1cccc(OCc2ccccc2COc2cccc(C#N)c2)c1 | 38 | > 100 |  | 35.5 | > 100 |  |  | 50.1 | > 100 | 4.02 | > 100 | 18.8 | 30.9 | 70.5 |  | 50.3 | > 100 | 40.8 |  | 
7 | COc1ccc2nc3cccc(C(=O)NCCN(C)C)c3nc2c1 | 2.69 | 4.88 |  | 8.8 |  | > 100 | 4.89 |  |  |  |  |  |  |  |  |  |  |  |  | 
8 | COc1ccc(C(=O)O/N=C2/CCC/C2=C\c2ccccc2)cc1 | > 100 | > 100 | > 100 | 99.6 | > 100 | > 100 | > 100 |  |  |  |  |  |  |  |  |  |  |  |  | 
9 | Nc1c(-c2nc3ccccc3[nH]2)sc(=S)n1-c1ccc(Cl)cc1 | > 100 | > 100 | > 100 | 37.2 |  |  | > 100 |  |  |  |  |  |  |  |  |  |  |  |  | 
10 | Cn1cc(NC(=O)c2cc(NC(=O)CCCCCCC(=O)Nc3cc(C(=O)Nc4cc(C(=O)NCCC(=N)N)n(C)c4)n(C)c3)cn2C)cc1C(=O)NCCC(=N)N | 12.1 | 16.9 | > 100 | 31 | 21.4 |  | 8.75 |  |  |  |  |  |  |  |  |  |  |  |  | 
11 | CO[C@H](C(=O)O)[C@@H]1Cc2cc3cc(OC4CC(OC5CC(O)C(O)C(C)O5)C(O)C(C)O4)c(C)c(O)c3c(O)c2C(=O)[C@H]1OC1CC(OC2CC(OC3CC(C)(O)C(O)C(C)O3)C(O)C(C)O2)C(O)C(C)O1 (some centres undefined) | 1.4 | 1.99 | > 32.5 | 2.02 | > 32.5 | 8.37 | > 32.5 | 10.1 | > 32.5 | 0.205 | 0.191 | 0.164 | 0.161 | > 32.5 | 0.133 |  |  | 0.131 | 0.33 | 1.06
12 | NCP(=O)(O)OCC(=O)O | > 100 | > 100 | > 100 | > 100 | > 100 | > 100 | > 100 |  |  |  |  |  |  |  |  |  |  |  |  | 
13 | Nc1nc(N)c(-c2ccccc2)c(CCC(=O)Nc2ccc(Cl)cc2)n1 | > 100 | > 100 | > 100 | > 100 | > 100 | > 100 | > 100 |  |  |  |  |  |  |  |  |  |  |  |  | 
14 | CCOC(=S)SCN1C(=O)c2ccccc2S1(=O)=O | 8.76 | 15 | 39.4 | 58.5 | > 100 |  |  | 14.1 | 50.8 | 1.94 | 3.42 | 24.7 | 29.4 | 82.5 |  | 44.1 | > 100 | 45.4 | 16.3 | 
15 | CCOC(=O)/N=c1/nc(N(C)C)ss1 | > 100 | > 100 | > 100 | > 100 | > 100 | > 100 | > 100 |  |  |  |  |  |  |  |  |  |  |  |  | 
16 | O=C(NCCCCOCC#Cc1ccccc1C#CCS(=O)(=O)c1ccccc1)c1cc2ccccc2[nH]1 | 24.1 | 26.7 |  | 26.8 | > 50 |  |  | 7.99 | 25 | 7.85 | 9.82 | 12.1 | 21.9 | > 50 |  | 8.91 | > 26.1 | 14.4 |  | 
17 | Cc1ccc(S(=O)OC23CC4CC(CC(C4)C2)C3)cc1 (centres undefined) | > 100 | > 100 |  | > 100 | > 100 | > 100 | 44.3 |  |  |  |  |  |  |  |  |  |  |  |  | 

Row | SMILES | TGI (MALME-3M melanoma) [µM] | TGI (SK-MEL-28 melanoma) [µM] | TGI (CCRF-CEM leukemia) [µM] | TGI (SF-539 CNS) [µM] | TGI (NCI-H460 lung) [µM] | TGI (SR leukemia) [µM] | TGI (HL-60(TB) leukemia) [µM] | GI50 (NCI/ADR-RES ovarian) [µM] | TGI (NCI/ADR-RES ovarian) [µM] | GI50 (MALME-3M melanoma) [µM] | GI50 (SK-MEL-28 melanoma) [µM] | GI50 (SF-539 CNS) [µM] | GI50 (HS 578T breast) [µM] | TGI (HS 578T breast) [µM] | GI50 (SR leukemia) [µM] | GI50 (MCF7 breast) [µM] | TGI (MCF7 breast) [µM] | GI50 (NCI-H460 lung) [µM] | GI50 (CCRF-CEM leukemia) [µM] | GI50 (HL-60(TB) leukemia) [µM]
18 | C[n+]1c(N)n(C(=O)OCc2ccccc2)c(=O)c2c1ncn2C(=O)OCc1ccccc1 | > 100 | > 100 | > 100 |  | > 100 |  | > 100 |  |  |  |  |  |  |  |  |  |  |  |  | 
19 | N#C/C(=C\c1ccccc1Br)C(=O)c1ccccc1 | > 100 | > 59.1 | 38.6 | > 100 | > 100 | > 83.8 | 15.9 |  |  |  |  |  |  |  |  |  |  |  |  | 
20 | Cn1ccnc1C[N-]Cc1nccn1C.O=[N+]([O-])[O-].O=[N+]([O-])[O-].[Cu+2] |  | > 100 | > 100 | > 100 | > 100 |  | > 100 |  |  |  | > 100 | > 100 |  |  |  |  |  | 62.8 | > 100 | > 100
21 | CCOC(=O)/C(C#N)=C/Nc1ccc(-c2nc3ccccc3[nH]2)cc1 |  | 54.1 |  | 40.9 | > 100 | > 100 | 97.3 | 41.4 | 66.1 |  | 22.5 | 21.5 | 24.3 | 79.5 | 40.8 |  |  | 24.8 |  | 40.5
22 | C1C[OH+]CC[OH+]CC[OH+]CC[OH+]CC[OH+]CC[OH+]1.[Cl-].[Nb+5] | > 100 | > 100 |  | > 100 | > 100 |  | > 100 |  |  | > 100 | > 100 | > 100 |  |  |  |  |  | > 100 |  | > 100
23 | CC(C)(C)OC(=O)N1N=NC2C3OC(CC3=O)C21 (centres undefined) | > 100 | > 100 | > 100 | > 100 | > 100 | > 100 |  |  |  |  |  |  |  |  |  |  |  |  |  | 
24 | C[N+](C)(C)CC1CCCC/C1=N\O (centres undefined) | > 100 | > 100 | > 100 | > 100 | > 100 |  | > 100 |  |  |  |  |  |  |  |  |  |  |  |  | 
25 | COc1cc2c(cc1OC)-c1ncc3cc4c(cc3c1C2)OCO4 |  | > 100 | 21.4 | 56.1 | 30.5 | 15.3 | 22 | 24.8 | 49.6 |  | > 100 | 23.4 |  |  | 2.7 | 12.4 | 30.6 | 13 | 6.36 | 10.3
26 | NS(=O)(=O)c1ccc(NC(=O)COC(=O)c2cccc3c(=O)c4ccccc4[nH]c23)cc1 | 50.5 | > 100 | > 89.5 | 32.7 | > 100 | 19.7 | > 100 |  |  |  |  |  |  |  |  |  |  |  |  | 
27 | O=C(/C(=C/c1ccccc1)c1ccccc1)N1c2ccccc2CC1c1c[nH]c2ccccc12 (centres undefined) | > 100 | > 100 | > 100 | > 100 | > 100 | > 100 | > 100 |  |  |  |  |  |  |  |  |  |  |  |  | 
28 | CCOC(=O)NC(=O)c1c[nH]c(=O)[nH]c1=O | > 100 | > 100 | > 100 | > 100 | > 100 | > 100 | > 100 |  |  |  |  |  |  |  |  |  |  |  |  | 
29 | CC1=C(C(=O)Nc2ccccc2)C(c2ccc(C(C)C)cc2)C(C(=O)Nc2ccccc2)=C(C)N1 | 30.2 | > 63.7 | 75.2 | 17.6 | 55.4 | 55.5 | 30.7 |  |  |  |  |  |  |  |  |  |  |  |  | 
30 | COC(=O)Cc1nc2ccccc2o1 | > 100 | > 100 | > 100 | > 100 | > 100 | > 100 | 41.4 |  |  |  |  |  |  |  |  |  |  |  |  | 
31 | CCCCOc1ccc(/C=N/Nc2cc(C)nc3ccc(Cl)cc23)cc1 | 3.38 | 3.08 | 4.48 | 3.28 |  | 3.13 | 3.65 | 1.73 | 3.36 | 1.85 | 1.66 | 1.84 |  |  | 0.501 | 1.65 | 3.37 |  | 1.86 | 1.76
32 | CC(=O)CC(=O)/C=C/c1cccs1 | > 100 |  | > 100 | > 100 | > 100 | > 100 | 72.5 |  |  |  |  |  |  |  |  |  |  |  |  | 
33 | COC(=O)C1CC(C(=O)OC)c2nc3cc(C)c(C)cc3nc21 (centres undefined) | > 100 | > 100 | > 100 | > 100 | > 100 |  | > 100 |  |  |  |  |  |  |  |  |  |  |  |  | 
34 | OCC(O)C(OC1OC(CO)C(O)C(O)C1O)c1nn(-c2ccccc2)c2nc3cc(Cl)ccc3nc12 (centres undefined) | > 100 | > 100 | > 100 | > 100 | > 100 | > 100 |  |  |  |  |  |  |  |  |  |  |  |  |  | 
